Values of other authors in patent publication US20260069551A1, “Patch for treating demyelinating diseases” (Johannes Gutenberg-Universität Mainz, priority 2022, published 2026).

Tested on: injured nerves
Details: 10 mg/kg/day, intraperitoneally injected

Cn1c(=O)c2[nH]cnc2n(C)c1=O [theophylline, 1,3-dimethyl-7H-purine-2,6-dione]
remyelination of injured nerves: significant remyelination
